Assay results taken from BigSolDB 2.1.

O=C(O)COc1ccc(Cl)cc1Cl
solubility (mole fraction)
Conditions | in tetrachloromethane | in toluene
294.15 K | – | 0.00118
298.65 K | – | 0.00178
303.15 K | – | 0.00264
303.65 K | 4.99e-05 | –
308.45 K | – | 0.00399
310.65 K | 0.000131 | –
313.25 K | – | 0.00547
313.55 K | 0.000193 | –
318.75 K | 0.000414 | 0.00821
323.05 K | 0.00074 | –
323.15 K | – | 0.0109
328.25 K | 0.00146 | –
328.85 K | – | 0.015
332.95 K | 0.00259 | –
335.35 K | – | 0.0207
338.05 K | 0.00497 | 0.0235
